Assay results reported in PMC5587909, “Inhibition of the ATP Synthase Eliminates the Intrinsic Resistance of Staphylococcus aureus towards Polymyxins” (mBio, 2017).
In brackets after ≈: the same amount, converted by molar mass. Bridge positions count the residues as written; N and C are the ends. Square brackets hold non-standard residues; d marks the D form. Peptide text beside a SMILES is read from it. * marks the point of attachment. Ileψ(thiazoline)Cys = CC[C@H](C)[C@H](N)C1=N[C@H](C(=O)*)CS1; dOrn = NCCC[C@@H](N)C(=O)O; X1 = CC[C@H](C)CCCCC(=O)*; Dab = NCC[C@H](N)C(=O)O

What was measured:
[1] = system: S. aureus JE2 atpA mutant; assay type: cell-based, Staphylococcus aureus; conditions: 2-fold broth microdilution in TSB (100 µl), inoculum approx. 5 × 10^5 cells/ml, 37°C, 22 h
Description: (§1) The strains used in this study include S. aureus strain JE2 (plasmid-cured derivative of USA300 LAC) and all derivative strains within the Nebraska Transposon Mutant Library (NTML), consisting of 1,920 unique transposon mutants with inactivation of nonessential genes ([15]). The bursa aurealis transposon used to create the collection contains the resistance cassette ermB, which confers resistance to erythromycin ([15]). Additionally we used S. aureus SA113 and two derivatives, SA113 ΔdltA ([9]) and SA113 ΔmprF ([10]). All bacterial strains were cultured at 37°C in tryptic soy broth (TSB) or on tryptic soy agar (TSA), with antimicrobial agents added as indicated. Two methods have been employed to determine MICs to various antimicrobial agents. (i) A 2-fold broth microdilution assay in TSB (100 µl) with an initial inoculum of approximately 5 × 10^5 cells/ml was employed to determine the MICs of polymyxin B sulfate (Sigma), gallidermin (Santa Cruz Biotechnology), nisin (Sigma), bacitracin (Sigma), and LL-37 (Isca Biochemicals). (ii) An Etest (BioMérieux) performed on TSA plates was employed to determine MICs for polymyxin B, colistin, ciprofloxacin, oxacillin, linezolid, gentamicin, vancomycin, and daptomycin. The MIC was determined upon incubation at 37°C for 22 h. When indicated, the Etest (BioMérieux) was performed on Mueller-Hinton agar plates (cation adjusted for calcium and magnesium).

[2] = system: S. aureus JE2 vraG mutant; assay type: cell-based, Staphylococcus aureus; conditions: 2-fold broth microdilution in TSB (100 µl), inoculum approx. 5 × 10^5 cells/ml, 37°C, 22 h
Description: as §1

[3] = system: S. aureus JE2 vraF mutant; assay type: cell-based, Staphylococcus aureus; conditions: 2-fold broth microdilution in TSB (100 µl), inoculum approx. 5 × 10^5 cells/ml, 37°C, 22 h; vraF mutant
Description: as §1

S. aureus JE2 (WT) = assay type: cell-based, Staphylococcus aureus; conditions: 2-fold broth microdilution in TSB (100 µl), inoculum approx. 5 × 10^5 cells/ml, 37°C, 22 h
Description: as §1

[4] = system: S. aureus JE2 graR mutant; assay type: cell-based, Staphylococcus aureus; conditions: 2-fold broth microdilution in TSB (100 µl), inoculum approx. 5 × 10^5 cells/ml, 37°C, 22 h; graR mutant
Description: as §1

[5] = system: S. aureus JE2 graR transposon mutant (SAUSA300_0645); test: microbe, parasite or virus in culture; conditions: Etest on TSA, 37°C, 22 h, graR mutant
Description: (§2) Staphylococcus aureus is intrinsically resistant to the clinically approved cationic antimicrobial peptides polymyxin B (PMB) and colistin ([1], [16]). […] The MIC for PMB was subsequently determined using Etests for the identified mutants.
as §1, with “(ii) An Etest (BioMérieux) performed on TSA plates was employed to determine MICs for polymyxin B, colistin, ciprofloxacin, oxacillin, linezolid, gentamicin, vancomycin, and daptomycin.” left out, “When indicated, the Etest (BioMérieux) was performed on Mueller-Hinton agar plates (cation adjusted for calcium and magnesium).” left out

[6] = system: S. aureus JE2 atpA transposon mutant (SAUSA300_2060); test: microbe, parasite or virus in culture; conditions: Etest on TSA, 37°C, 22 h, atpA mutant
Description: as §2
as §1, with “(ii) An Etest (BioMérieux) performed on TSA plates was employed to determine MICs for polymyxin B, colistin, ciprofloxacin, oxacillin, linezolid, gentamicin, vancomycin, and daptomycin.” left out, “When indicated, the Etest (BioMérieux) was performed on Mueller-Hinton agar plates (cation adjusted for calcium and magnesium).” left out

[7] = system: S. aureus JE2 (wild type); test: microbe, parasite or virus in culture; conditions: Etest on TSA, 37°C, 22 h
Description: as §2
as §1, with “(ii) An Etest (BioMérieux) performed on TSA plates was employed to determine MICs for polymyxin B, colistin, ciprofloxacin, oxacillin, linezolid, gentamicin, vancomycin, and daptomycin.” left out, “When indicated, the Etest (BioMérieux) was performed on Mueller-Hinton agar plates (cation adjusted for calcium and magnesium).” left out

[8] = system: S. aureus JE2 vraF transposon mutant (SAUSA300_0647); test: microbe, parasite or virus in culture; conditions: Etest on TSA, 37°C, 22 h, vraF mutant
Description: as §2
as §1, with “(ii) An Etest (BioMérieux) performed on TSA plates was employed to determine MICs for polymyxin B, colistin, ciprofloxacin, oxacillin, linezolid, gentamicin, vancomycin, and daptomycin.” left out, “When indicated, the Etest (BioMérieux) was performed on Mueller-Hinton agar plates (cation adjusted for calcium and magnesium).” left out

[9] = system: S. aureus JE2 vraG transposon mutant (SAUSA300_0648); test: microbe, parasite or virus in culture; conditions: Etest on TSA, 37°C, 22 h, vraG mutant
Description: as §2
as §1, with “(ii) An Etest (BioMérieux) performed on TSA plates was employed to determine MICs for polymyxin B, colistin, ciprofloxacin, oxacillin, linezolid, gentamicin, vancomycin, and daptomycin.” left out, “When indicated, the Etest (BioMérieux) was performed on Mueller-Hinton agar plates (cation adjusted for calcium and magnesium).” left out

[10] = system: S. aureus JE2 cbiO transposon mutant (SAUSA300_2176); assay type: cell-based, Staphylococcus aureus; conditions: Etest on TSA, 37°C, 22 h
Description: (§3) Staphylococcus aureus is intrinsically resistant to the clinically approved cationic antimicrobial peptides polymyxin B (PMB) and colistin ([1], [16]). […] The MIC for PMB was subsequently determined using Etests for the identified mutants. Nineteen mutants were confirmed to be at least 2-fold more susceptible than the WT (Table 1). As expected, we identified transposon insertions in graS, graR, vraF, and vraG, corroborating previous work on these determinants in S. aureus in relation to increased PMB susceptibility ([12]).
as §1

[11] = system: S. aureus JE2 atpG transposon mutant (SAUSA300_2059); assay type: cell-based, Staphylococcus aureus; conditions: Etest on TSA, 37°C, 22 h; atpG mutant
Description: as §3, §1

[12] = system: S. aureus JE2 transposon mutant SAUSA300_0980 (hypothetical protein); assay type: cell-based, Staphylococcus aureus; conditions: Etest on TSA, 37°C, 22 h
Description: as §3, §1

[13] = system: S. aureus JE2 trkA transposon mutant (SAUSA300_0988); assay type: cell-based, Staphylococcus aureus; conditions: Etest on TSA, 37°C, 22 h
Description: as §3, §1

[14] = system: S. aureus JE2 transposon mutant SAUSA300_0918 (diacylglycerol glucosyltransferase); assay type: cell-based, Staphylococcus aureus; conditions: Etest on TSA, 37°C, 22 h
Description: as §3, §1

[15] = system: S. aureus JE2 lspA transposon mutant (SAUSA300_1089); assay type: cell-based, Staphylococcus aureus; conditions: Etest on TSA, 37°C, 22 h
Description: as §3, §1

[16] = system: S. aureus JE2 atpH transposon mutant (SAUSA300_2061); assay type: cell-based, Staphylococcus aureus; conditions: Etest on TSA, 37°C, 22 h; atpH mutant
Description: as §3, §1

[17] = system: S. aureus JE2 transposon mutant SAUSA300_1254 (hypothetical protein); assay type: cell-based, Staphylococcus aureus; conditions: Etest on TSA, 37°C, 22 h
Description: as §3, §1

[18] = system: S. aureus JE2 graS transposon mutant (SAUSA300_0646); assay type: cell-based, Staphylococcus aureus; conditions: Etest on TSA, 37°C, 22 h; graS mutant
Description: as §3, §1

[19] = system: S. aureus JE2 transposon mutant SAUSA300_1495 (hypothetical protein); assay type: cell-based, Staphylococcus aureus; conditions: Etest on TSA, 37°C, 22 h
Description: as §3, §1

[20] = system: S. aureus JE2 transposon mutant SAUSA300_1785 (putative ABC transporter protein EcsB); assay type: cell-based, Staphylococcus aureus; conditions: Etest on TSA, 37°C, 22 h
Description: as §3, §1

[21] = system: S. aureus JE2 atpB transposon mutant (SAUSA300_2064); assay type: cell-based, Staphylococcus aureus; conditions: Etest on TSA, 37°C, 22 h; atpB mutant
Description: as §3, §1

[22] = system: S. aureus JE2 yajC transposon mutant (SAUSA300_1594); assay type: cell-based, Staphylococcus aureus; conditions: Etest on TSA, 37°C, 22 h
Description: as §3, §1

[23] = system: S. aureus JE2 transposon mutant SAUSA300_1802 (hypothetical protein); assay type: cell-based, Staphylococcus aureus; conditions: Etest on TSA, 37°C, 22 h
Description: as §3, §1

[24] = system: S. aureus JE2 vraS transposon mutant (SAUSA300_1866); assay type: cell-based, Staphylococcus aureus; conditions: Etest on TSA, 37°C, 22 h
Description: as §3, §1

[25] = conventional antibiotics (Table 3)

Question: Which “MIC, atpA” value [1] does the source give for `CC[C@H](C)[C@H](N)C1=N[C@H](C(=O)N[C@@H](CC(C)C)C(=O)N[C@H](CCC(=O)O)C(=O)N[C@H](C(=O)N[C@H]2CCCCNC(=O)[C@H](CC(N)=O)NC(=O)[C@@H](CC(=O)O)NC(=O)[C@H](Cc3cnc[nH]3)NC(=O)[C@@H](Cc3ccccc3)NC(=O)[C@H]([C@@H](C)CC)NC(=O)[C@@H](CCCN)NC2=O)[C@@H](C)CC)CS1` [Bacitracin, bacitracin] ({Ileψ(thiazoline)Cys}-L[dE]IK[dOrn]I[dF]H[dD]N; lactam 4-C (inferred); N-terminus assumed) here?
Answer: 128 µg/mL (≈ 90 µM)

Question: What about the “MIC, vraG” value [2] of the same compound?
Answer: 256 µg/mL (≈ 180 µM)

Question: And the “MIC, vraF” value [3]?
Answer: 256 µg/mL (≈ 180 µM)

Question: What about the “MIC, WT” value (S. aureus JE2 (WT)) of the same compound?
Answer: 256 µg/mL (≈ 180 µM)

Question: What about the “MIC, graR” value [4] of the same compound?
Answer: 128 µg/mL (≈ 90 µM)

Question: `CC[C@H](C)CCCCC(=O)N[C@@H](CCN)C(=O)N[C@H](C(=O)N[C@@H](CCN)C(=O)N[C@H]1CCNC(=O)[C@H]([C@@H](C)O)NC(=O)[C@H](CCN)NC(=O)[C@H](CCN)NC(=O)[C@H](CC(C)C)NC(=O)[C@@H](CC(C)C)NC(=O)[C@H](CCN)NC1=O)[C@@H](C)O` [Colistin, colistin] (X1-[Dab]T[Dab][Dab][Dab][dL]L[Dab][Dab]T; lactam 4-C (inferred); N-terminus assumed) was tested. Which MIC [5] did it give?
Answer: 32 µg/mL (≈ 27.4 µM)

Question: And the MIC [6]?
Answer: 48 µg/mL (≈ 41 µM)

Question: And the MIC ([7]; wild type S. aureus JE2)?
Answer: >256 µg/mL

Question: And the MIC [8]?
Answer: 32 µg/mL (≈ 27.4 µM)

Question: What about the MIC [9] of the same compound?
Answer: 24 µg/mL (≈ 20.5 µM)

Question: What about the MIC [10] of the same compound?
Answer: 64 µg/mL (≈ 54.7 µM)

Question: What about the MIC [11] of the same compound?
Answer: 48 µg/mL (≈ 41 µM)

Question: What about the MIC [12] of the same compound?
Answer: >256 µg/mL

Question: What about the MIC [13] of the same compound?
Answer: 128 µg/mL (≈ 109 µM)

Question: And the MIC [14]?
Answer: >256 µg/mL

Question: And the MIC [15]?
Answer: 256 µg/mL (≈ 219 µM)

Question: What about the MIC [16] of the same compound?
Answer: 48 µg/mL (≈ 41 µM)

Question: And the MIC [17]?
Answer: 192 µg/mL (≈ 164 µM)

Question: And the MIC [18]?
Answer: 32 µg/mL (≈ 27.4 µM)

Question: And the MIC [19]?
Answer: >256 µg/mL

Question: And the MIC [20]?
Answer: >256 µg/mL

Question: What about the MIC [21] of the same compound?
Answer: 48 µg/mL (≈ 41 µM)

Question: And the MIC [22]?
Answer: 256 µg/mL (≈ 219 µM)

Question: And the MIC [23]?
Answer: >256 µg/mL

Question: And the MIC [24]?
Answer: 256 µg/mL (≈ 219 µM)

Question: Which “MIC, graR” value [5, 25] does the source give for `CCCCCCCCCC(=O)N[C@@H](Cc1c[nH]c2ccccc12)C(=O)N[C@H](CC(N)=O)C(=O)N[C@@H](CC(=O)O)C(=O)N[C@@H]1C(=O)NCC(=O)N[C@@H](CCCN)C(=O)N[C@@H](CC(=O)O)C(=O)N[C@H](C)C(=O)N[C@@H](CC(=O)O)C(=O)NCC(=O)N[C@H](CO)C(=O)N[C@@H]([C@H](C)CC(=O)O)C(=O)N[C@@H](CC(=O)c2ccccc2N)C(=O)O[C@@H]1C` [Daptomycin, daptomycin] here?
Answer: 0.19 µg/mL (≈ 0.117 µM)

Question: And the “MIC, atpA” value [6, 25]?
Answer: 0.250 µg/mL (≈ 0.154 µM)

Question: What about the “MIC, WT” value ([7]; conventional antibiotics (Table 3), WT JE2) of the same compound?
Answer: 0.25 µg/mL (≈ 0.154 µM)

Question: What about the “MIC, vraF” value [8, 25] of the same compound?
Answer: 0.25 µg/mL (≈ 0.154 µM)

Question: What about the “MIC, vraG” value [9, 25] of the same compound?
Answer: 0.25 µg/mL (≈ 0.154 µM)
